Reference: patent US20070184481A1, “Assay For Transcriptionally Active Methylated Promoters” (UNIVERSITY OF SOUTH FLORIDA, priority 2005, published 2007)

Tested on: HLA-DRA mRNA in RFX-negative cell lines
Conditions: two RFX-negative suspension B-cell lines, 5 uM Azacytidine for 72 hours, RT-PCR 40 cycles, agarose gel detection
Experimental: Suspension B-cell lines were seeded at 10^5 cells per ml in 20 ml volume of media. […] Total RNA was prepared as described, and 5 ug of RNA were used in a standard reverse transcriptase, polymerase chain reaction (RT-PCR) for HLA-DRA mRNA and for γ-actin mRNA. PCR was performed for 40 cycles and the PCR products detected by 2.2% agarose gel electrophoresis.

## Nc1ncn([C@@H]2O[C@H](CO)[C@@H](O)[C@H]2O)c(=O)n1 [AzaC, Azacytidine]
  HLA-DRA mRNA production compared to untreated cells: increase in HLA-DRA mRNA production
